# Measured values taken from patent US8138159B2, “Composition for inhibiting function of human Flt3” (Takara Bio Inc., priority 2003, dated 2012).
# How the values were obtained:
# [1] = tested on: HL60 cells (WT-low expressing); test: cell growth activity, Premix WST1 (Example 2); format: cell-based, human
# Description: The cells placed in a 96-well plate at a density of 2×10^4 cells/well were cultured in an RPMI medium (containing 10% by volume FBS). The cells were transfected with each of the synthesized (10 nM each) siRNAs, and after 20 hours, the cell growth activity was determined with Premix WST1 reagent (trade name, manufactured by TAKARA BIO INC.). Relative growth ability (%) compared with the growth ability of the control (cells subjected to transfection without adding an siRNA) was determined. Each experiment was carried out with n=3, and the mean was determined.
# [2] = tested on: MV4-11 (ITD mutation) cells; test: growth inhibition by siRNA3 in combination with kinase inhibitor AG1295, WST-1 (Example 4); format: cell-based, human; conditions: siRNA3 alone, 1.2 μM at electroporation, 0 μM AG1295, 72 hours
# Description: The growth inhibitory activity of treatment with a combination of the composition (synthesized siRNA3) of the present invention and a kinase inhibitor on MV4-11 (ITD mutation) cells was examined. The synthesized siRNA3 used was the same as in item (1) of Example 1 above. As the kinase inhibitor, AG1295 (manufactured by CALBIOCHEM) having high specificity to ITD mutation cells was used.
# In the same manner as in item (2) of Example 1 above, MV4-11 cells were cultured at 37° C. for 24 hours in a medium obtained by supplementing 10% by volume fetal bovine serum (FBS) to an RPMI 1640 medium (manufactured by TAKARA BIO INC.) (referred to hereinafter as a culture medium) in the presence of 5% by volume CO2. Then, the MV4-11 cells (1×10^6 cells/ml) suspended in Opti-MEM (trade name, manufactured by Invitrogen) were transferred to a cuvette (manufactured by BIO RAD; gap of 4 mm), and siRNA3 was added to the cuvette so as to give a final concentration of 1.2 μM. Then, the cuvette was set in Gene Pulser Xcell (trade name, manufactured by BIO RAD) and thereafter pulsed with electric field intensity of 650 V/cm for 25 msec. Then, the suspension of the cells in the cuvette was added to, and suspended in, a 4-fold excess volume of the culture medium and dispensed onto a 96-well plate so as to give an amount of 100 μl/well. […]
# 4 mM AG1295 (dissolved in DMSO) was diluted with the above-mentioned culture medium to prepare AG1295 dilutions at a concentration of 10 μM, 6 μM and 0 μM (0.25% by volume DMSO) and added so as to give an amount of 100 μl/well to the 96-well plate prepared in step (2) above and cultured at 37° C. in the presence of 5% by volume CO2. Seventy-two hours after the culture was initiated, the growth activity of the cells was determined using Premix WST-1 reagent (trade name, manufactured by TAKARA BIO INC.) according to a manufacturer's protocol. Each experiment was carried out with n=6, and the mean was determined. The relative growth ratio (%) to the growth ability of the cells transfected with the control siRNA/0 μM AG1295 was determined. […]
substance,measurement,setting,value
"siRNA3: siRNA to juxtamembrane region (Flt3/JMD region) (target SEQ ID NO: 7); sense SEQ ID NO: 8, antisense SEQ ID NO: 9 (sense UAUGAAUAUGAUCUCAAAUTT; antisense AUUUGAGAUCAUAUUCAUATT; chemistry not given here)",Ratio of cell-growth activation defining RNA interference effect in HL60 as 1,"[1]; HL60, the reference itself",(1)
same,Relative growth ability (%) compared with the control,"[1]; HL60, siRNA 10 nM, after 20 hours, n=3 mean, control = transfection without siRNA",90.3%
same,growth inhibition as compared with the cells transfected with the control siRNA/0 μM AG1295,[2],83.7%
